Values joined by “and” are separate entries in the source; they are usually repeats but may differ in a detail not shown here. Equal entries are not always repeated. Structures can show the parent of a compound that is named as a salt.
Legend:
[1] = tested on: FMLP-stimulated human neutrophils (superoxide generation); assay: Human neutrophil superoxide generation (FMLP-stimulated, cytochrome C reduction); format: cell-based; details: for activation at 5 µM / activation at 10 µM: read-out: Stimulation of FMLP Induced Superoxide, above control; for Stimulation of FMLP Induced Superoxide: concentrations at which compound stimulates: "Stimulates at" concentration range
Method: The compounds of the invention are evaluated with respect to superoxide modulating activity according to the following assay procedure:
Human neutrophil superoxide generation: Superoxide generation by formyl-methionyl-leucyl-phenylalanine (FMLP)-stimulated neutrophils was quantitated by the reduction of cytochrome C (Badwey, J. A., Curnutte, J. T. and Karnovsky, M. L., cis-Polyunsaturated fatty acids induce high levels of superoxide production by human neutrophils. J. Biol. Chem. 256: 12640-12643, 1981.) To 5 million neutrophils in 2.85 ml of KrebsRinger phosphate buffer, pH 7.2, 50 ul of inhibitor (in 10% DMSO/buffer), and 50 ul ferricytochrome C (5 mM, stock) were added and preincubated for 3 minutes at 37° C. Absorption measurements at 550 nm were recorded at start of preincubation. Fifty ul FMLP (6 uM, stock) was added to initiate reaction. A plateau was reached within 3 minutes and this reading--initial reading (before addition of FMLP) was used to calculate nanomoles of superoxide generated based on a molar extinction coefficient of 2.1×10^4 cm^-1 mole^-1.
Isolation of human neutrophils: Human neutrophils were isolated from freshly drawn blood of healthy donors. Two ml of 5% dextran (MW 200,000-300,000) in saline was added to 10 ml aliquots of blood, mixed and placed upright for 45 min. at 37° C. Approx. 8-10 ml of the plasma-white cell suspension from the dextran sedimentation was layered on 3 ml of Ficol-paque in a 15 ml tube and centrifuged at 400 g for 30 min. The supernate, containing plasma and platelets, was discarded by aspiration, and the pellet, containing predominantly neutrophils, was resuspended in 1 ml saline. The suspension was transferred to a clean tube, and pooled with other aliquots of blood treated similarly. The pooled suspension was centrifuged at 350 g for 5 min. and supernate discarded. The pellet was resuspended in 5 ml of 0.05% NaCl with a plastic Pasteur pipette for 25 seconds to lyse contaminating red cells, then 5 ml of 1.75% NaCl added to regain isotonicity. The red cell lysing procedure was repeated, the cells suspended in appropriate buffer (depending on assay) and counted.
For comparison the compound of Formula IV, a known 5-lipoxygenase inhibitor described in U.S. Pat. No. 4,755,524 was used. [drawing 20] (±)[2S*-[[3.5-bis(1,1-dimethylethyl)-4-hydroxyphenyl]thio]-1R*-methylpro poxy]acetic acid

5-lipoxygenase = molecular target: T1, 5-lipoxygenase (Rattus norvegicus, UniProt P12527); assay: Inhibition of 5-lipoxygenase, in vitro (5-HETE synthesis by RBL-1 100,000×g supernatant); format: biochemical; details: for IC50: RBL-1 homogenate supernatant, 5-HETE synthesis
T1 construct: supernatant fraction of Rat Basophilic Leukemia Cell Homogenate (RBL-1) serves as a 5-lipoxygenase enzyme source; endogenous in cells; host or cells: RBL-1 (rat basophilic leukemia) cells, 100,000×g supernatant of homogenate
T1 sequence (P12527 1-673): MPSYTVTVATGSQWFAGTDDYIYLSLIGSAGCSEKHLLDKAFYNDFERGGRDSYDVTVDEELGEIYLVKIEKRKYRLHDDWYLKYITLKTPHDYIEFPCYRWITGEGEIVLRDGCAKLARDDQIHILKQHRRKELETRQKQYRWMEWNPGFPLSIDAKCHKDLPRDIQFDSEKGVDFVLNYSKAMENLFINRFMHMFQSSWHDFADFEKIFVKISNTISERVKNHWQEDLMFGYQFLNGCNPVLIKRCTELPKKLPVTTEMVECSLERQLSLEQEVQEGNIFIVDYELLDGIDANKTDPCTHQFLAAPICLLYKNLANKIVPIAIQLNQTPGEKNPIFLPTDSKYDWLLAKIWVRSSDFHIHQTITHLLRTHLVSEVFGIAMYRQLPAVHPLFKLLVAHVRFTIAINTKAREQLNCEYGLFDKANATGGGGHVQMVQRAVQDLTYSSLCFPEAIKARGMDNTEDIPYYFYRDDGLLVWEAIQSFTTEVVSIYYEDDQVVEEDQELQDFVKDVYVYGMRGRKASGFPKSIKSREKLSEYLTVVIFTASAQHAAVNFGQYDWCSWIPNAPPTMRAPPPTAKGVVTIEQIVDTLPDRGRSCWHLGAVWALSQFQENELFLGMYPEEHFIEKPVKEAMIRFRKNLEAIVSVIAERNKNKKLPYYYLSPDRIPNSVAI
Method: The compounds of the invention are evaluated with respect to 5-lipoxygenaseinhibition according to the following assay procedure.
Inhibition of 5-lipoxygenase, in vitro:
anti-inflammatory, anti-allergy activities.
The 100,000×g supernatant fraction of Rat Basophilic Leukemia Cell Homogenate (RBL-1) serves as a 5-lipoxygenase enzyme source. The enzyme is incubated with [1-^14 C)-arachidonic acid and Ca++ in the presence and absence of test compound. The product of 5-lipoxygenase, 5-hydroxyeicosatetraenoic acid (5-HETE), is separated by thin-layer chromatography and measured by radioactivity. A compound inhibiting 5-HETE synthesis by 30% or more is considered active at that concentration.

SMILES	IC50 (5-lipoxygenase)	activation at 5 µM ([1]; Homo sapiens, Neutrophil)	activation at 10 µM ([1]; Homo sapiens, Neutrophil)	Stimulation of FMLP Induced Superoxide: concentrations at which compound stimulates [1]	other results
C[C@H](Sc1cc(C(C)(C)C)c(O)c(C(C)(C)C)c1)[C@@H](C)OCC(=O)O (relative stereo) [Formula IV, (±)[2S*-[[3.5-bis(1,1-dimethylethyl)-4-hydroxyphenyl]thio]-1R*-methylpropoxy]acetic acid, reference compound]					IC50 ([1]; Homo sapiens, Neutrophil, inhibition of FMLP induced superoxide, read-out: Inhibited superoxide generation, IC50): 11000 nM; Effect on superoxide generation (in words) ([1]; neutrophils): inhibited both superoxide generation and 5-lipoxygenase; Effect on 5-lipoxygenase (in words) (5-lipoxygenase): inhibited both superoxide generation and 5-lipoxygenase
CN(CCc1ccccn1)C(=O)CCSc1cc(C(C)(C)C)c(O)c(C(C)(C)C)c1 [Example 5, 3-[[3,5-bis(1,1-dimethylethyl)-4-hydroxyphenyl]thio]-N-methyl-N-[2-(2-pyridinyl)ethyl]propanamide monohydrochloride]		50%	227%		
CC(C)C(O)CCSc1cc(C(C)(C)C)c(O)c(C(C)(C)C)c1 (centres unmarked) [Example 9, 2,6-bis(1,1-dimethylethyl)-4-[(3-hydroxy-4-methylpentyl)thio]phenol]	260 nM			5 to 50 µM	
CC(C)C(C)(O)CCSc1cc(C(C)(C)C)c(O)c(C(C)(C)C)c1 (centres unmarked) [Example 10, 2,6-bis(1,1-dimethylethyl)-4-[(3-hydroxy-3,4-dimethylpentyl)thio]phenol]	790 nM			5 to 50 µM	

Second part, led by results:

IC50 (5-lipoxygenase)	SMILES	activation at 5 µM ([1]; Homo sapiens, Neutrophil)	activation at 10 µM ([1]; Homo sapiens, Neutrophil)	Stimulation of FMLP Induced Superoxide: concentrations at which compound stimulates [1]	other results
230 nM and 330 nM	Cc1cccc(C)c1NC(=O)CCSc1cc(C(C)(C)C)c(O)c(C(C)(C)C)c1 [Example 7, 3-[[3,5-bis(1,1-dimethylethyl)-4-hydroxyphenyl]thio]-N-(2,6-dimethylphenyl)propanamide]			3 to 20 µM	
160 nM	CC(C)(C)c1cc(SCCC(=O)N2CCN(Cc3ccccc3)CC2)cc(C(C)(C)C)c1O [Example 8, 1-[3-[[3,5-Bis(1,1-dimethylethyl)4-hydroxyphenyl]thio]-1-oxopropyl]-4-(phenylmethyl)piperazine]	150%	206%		
